Consider seven molecules from patent publication USRE39591E1, “6-O-substituted ketolides having antibacterial activity” (Abbott Laboratories, priority 1996, dated 2007).

Values after ≈ are worked out from the molar mass of the structure shown. Some results are limits rather than exact numbers.

The test system of this assay is up to 32 different microorganisms. Briefly: in vitro antibacterial activity (MIC), agar dilution on Brain Heart Infusion (BHI) agar with Steers replicator. It counts as cell-based. As to conditions: unit assumed. In outline:
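Agar dilution MIC: twelve successive compound dilutions in BHI agar, spot-inoculated with 1:100 (1:10 for slow growers) organism dilutions by Steers replicator, incubated 35-37° C for 20-24 h. MIC is lowest concentration showing no growth, slight haze or sparse colonies versus drug-free control; erythromycin A as class reference.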
(In general: In agar dilution the substance is mixed into plates at graded concentrations.)

Setting [1] is: Candida albicans CCH 442 (code TT).
The mark [2] stands for this setting: Enterococcus faecism ATCC 8043 (code II).
Setting [3] is: Escherichia coli DC-2 (code SS).
Setting [4] is: Escherichia coli JUHL (code QQ).
Where [5] appears, read: Haemophilis influenzae DILL AMP R (code WW).
The mark [6] stands for this setting: Micrococcus luteus ATCC 4698 (code PP).
[7] abbreviates: Micrococcus luteus ATCC 9341 (code OO).
[8] abbreviates: Mycobacterium smegmatis ATCC 114 (code UU).
The mark [9] stands for this setting: Nocardia Asteroides ATCC9970 (code VV).
Setting [10] is: Staphylococcus aureus 1775 (code GG).
Where [11] appears, read: Staphylococcus aureus A5177 (code BB).
Where [12] appears, read: Staphylococcus aureus A-5278 (code CC).
Where [13] appears, read: Staphylococcus aureus ATCC 6538P (code AA).
Where [14] appears, read: Staphylococcus aureus CMX 553 (code FF).
[15] abbreviates: Staphylococcus aureus CMX 642A (code DD).
Setting [16] is: Staphylococcus aureus NCTC10649M (code EE).
Where [17] appears, read: Staphylococcus epidermidis 3519 (code HH).
Where [18] appears, read: Streptococcus Pneumonia 5649 (code ZZA).
[19] abbreviates: Streptococcus Pneumonia 5979 (code ZZ).
Where [20] appears, read: Streptococcus Pneumonia ATCC6303 (code XX).
Setting [21] is: Streptococcus Pneumonia GYR 1171 (code YY).
The mark [22] stands for this setting: Streptococcus agalactiae CMX 508 (code KK).
[23] abbreviates: Streptococcus bovis A-5169 (code JJ).
Setting [24] is: Streptococcus pyogenes 930 (code MM).
Setting [25] is: Streptococcus pyogenes EES61 (code LL).
The mark [26] stands for this setting: Streptococcus pyogenes PIU 2548 (code NN).

For the molecule `CC[C@H]1OC(=O)[C@H](C)C(=O)[C@H](C)[C@@H](O[C@@H]2O[C@H](C)C[C@H](N(C)C)[C@H]2O)[C@@](C)(OCc2ccc3ccccc3c2)C[C@@H](C)C(=O)[C@H](C)[C@@H](O)[C@]1(C)O` [Example 173], the MIC is 100 µg/mL (≈ 140 µM) under setting [1]; 1.56 µg/mL (≈ 2.19 µM) under setting [2]; above 100 µg/mL under setting [3]; above 100 µg/mL under setting [4]; 50 µg/mL (≈ 70 µM) (Escherichia coli SS (code RR)); 128 µg/mL (≈ 179 µM) under setting [5]. Moreover, the MIC was determined as 3.1 µg/mL (≈ 4.34 µM) under setting [6]; 0.78 µg/mL (≈ 1.09 µM) under setting [7]; 3.1 µg/mL (≈ 4.34 µM) under setting [8]; 6.2 µg/mL (≈ 8.68 µM) under setting [9]; 100 µg/mL (≈ 140 µM) under setting [10]; 50 µg/mL (≈ 70 µM) under setting [11]. The MIC worked out at 100 µg/mL (≈ 140 µM) under setting [12]; 12.5 µg/mL (≈ 17.5 µM) under setting [13]; 12.5 µg/mL (≈ 17.5 µM) under setting [14]; 12.5 µg/mL (≈ 17.5 µM) under setting [15]; 12.5 µg/mL (≈ 17.5 µM) under setting [16]; 12.5 µg/mL (≈ 17.5 µM) under setting [17]. Further, the MIC runs as follows: under setting [18], 4 µg/mL (≈ 5.6 µM); under setting [19], 32 µg/mL (≈ 44.8 µM); under setting [20], 2 µg/mL (≈ 2.8 µM); under setting [21], 2 µg/mL (≈ 2.8 µM); under setting [22], 0.78 µg/mL (≈ 1.09 µM); under setting [23], 0.78 µg/mL (≈ 1.09 µM). Also, the MIC reads like this: under setting [24], 50 µg/mL (≈ 70 µM); under setting [25], 0.78 µg/mL (≈ 1.09 µM); under setting [26], 3.1 µg/mL (≈ 4.34 µM).

Regarding `CC[C@H]1OC(=O)[C@H](C)C(=O)[C@H](C)[C@@H](O[C@@H]2O[C@H](C)C[C@H](N(C)C)[C@H]2O)[C@@](C)(OCCCc2ccccc2)C[C@@H](C)C(=O)[C@H](C)[C@H]2OC(=O)O[C@@]21C` [Example 73, Compound of Formula (IX): L is CO, T is O, R is —CH2CH2CH2-Phenyl], the MIC runs as follows: under setting [1], above 100 µg/mL; under setting [2], 0.1 µg/mL; under setting [3], above 100 µg/mL; under setting [4], above 100 µg/mL; (Escherichia coli SS (code RR)) 3.1 µg/mL; under setting [5], 16 µg/mL. The MIC runs as follows: under setting [6], 0.2 µg/mL; under setting [7], 0.1 µg/mL; under setting [8], 0.78 µg/mL; under setting [9], 0.39 µg/mL; under setting [10], 100 µg/mL; under setting [11], 0.39 µg/mL. Moreover, the MIC was above 100 µg/mL under setting [12]; 0.39 µg/mL under setting [13]; 0.39 µg/mL under setting [14]; 0.39 µg/mL under setting [15]; 0.39 µg/mL under setting [16]; 0.39 µg/mL under setting [17]. Further, the MIC reads like this: under setting [18], 1 µg/mL; under setting [19], 64 µg/mL; under setting [20], 0.125 µg/mL; under setting [21], 0.125 µg/mL; under setting [22], 0.05 µg/mL; under setting [23], 0.05 µg/mL. Moreover, the MIC is, setting by setting: under setting [24], 12.5 µg/mL; under setting [25], 0.05 µg/mL; under setting [26], 0.2 µg/mL.

For `CC[C@H]1OC(=O)[C@H](C)C(=O)[C@H](C)[C@@H](O[C@@H]2O[C@H](C)C[C@H](N(C)C)[C@H]2O)[C@@](C)(OCCNCc2cnc3ccccc3c2)C[C@@H](C)C(=O)[C@H](C)[C@H]2NC(=O)O[C@@]21C` [Example 226, Compound of Formula (IX): L is CO, T is NH, R is —CH2CH2NHCH2(3-quinolyl)], the MIC runs as follows: (organism code AA) 0.1 µg/mL; (organism code BB) 0.1 µg/mL; (organism code CC) above 100 µg/mL; (organism code DD) 0.1 µg/mL; (organism code EE) 0.1 µg/mL; (organism code FF) 0.1 µg/mL. Moreover, the MIC is above 100 µg/mL (organism code GG); 0.1 µg/mL (organism code HH); 0.05 µg/mL (organism code II); 0.01 µg/mL (organism code JJ); 0.02 µg/mL (organism code KK); 0.01 µg/mL (organism code LL). Besides, the MIC is 6.2 µg/mL (organism code MM); 0.39 µg/mL (organism code NN); 0.02 µg/mL (organism code OO); 0.1 µg/mL (organism code PP); 6.2 µg/mL (organism code QQ); 0.2 µg/mL (organism code RR). The molecule further came in with an MIC (organism code SS) of 12.5 µg/mL; an MIC (organism code TT) above 100 µg/mL; an MIC (organism code UU) of 9.78 µg/mL; an MIC (organism code VV) of 0.05 µg/mL; an MIC (organism code WW) of 2 µg/mL; an MIC (organism code XX) of 0.03 µg/mL. Also, the MIC is, setting by setting: (organism code YY) 0.03 µg/mL; (organism code ZZ) above 128 µg/mL; (organism code ZZA) 2 µg/mL.

On to `CC[C@H]1OC(=O)[C@H](C)C(=O)[C@H](C)[C@@H](O[C@@H]2O[C@H](C)C[C@H](N(C)C)[C@H]2O)[C@@](C)(OCCNCc2ccc3ncccc3c2)C[C@@H](C)C(=O)[C@H](C)[C@H]2NC(=O)O[C@@]21C` [Example 227, Compound of Formula (IX): L is CO, T is NH, R is —CH2CH2NHCH2(6-quinolyl)], for which the MIC reads like this: (organism code AA) 0.2 µg/mL; (organism code BB) 0.2 µg/mL; (organism code CC) above 100 µg/mL; (organism code DD) 0.2 µg/mL; (organism code EE) 0.2 µg/mL; (organism code FF) 0.2 µg/mL. In addition, the MIC is, setting by setting: (organism code GG) above 100 µg/mL; (organism code HH) 0.2 µg/mL; (organism code II) 0.05 µg/mL; (organism code JJ) at most 0.005 µg/mL; (organism code KK) 0.05 µg/mL; (organism code LL) 0.02 µg/mL. For the same molecule, the MIC is 50 µg/mL (organism code MM); 0.39 µg/mL (organism code NN); 0.05 µg/mL (organism code OO); 0.39 µg/mL (organism code PP); 6.2 µg/mL (organism code QQ); 0.1 µg/mL (organism code RR). The MIC is, setting by setting: (organism code SS) 25 µg/mL; (organism code TT) above 100 µg/mL; (organism code UU) 1.56 µg/mL; (organism code VV) 0.05 µg/mL; (organism code WW) 2 µg/mL; (organism code XX) 0.03 µg/mL. Besides, the MIC is 0.03 µg/mL (organism code YY), above 64 µg/mL (organism code ZZ) and 2 µg/mL (organism code ZZA).

On to `CCC1OC(=O)C(C)C(=O)C(C)C(OC2OC(C)CC(N(C)C)C2O)C(C)(OCC=Cc2cnc3ncccc3c2)CC(C)C(=O)C(C)C2NC(=O)OC12C` (stereo not shown) [Example 202, R is —CH2CH═CH-(1,8-naphthyridin-3-yl)], for which the MIC (organism code XX) was found to be 0.03 µg/mL (≈ 0.0391 µM), the MIC (organism code YY) stood at 0.03 µg/mL (≈ 0.0391 µM), the MIC (organism code ZZ) amounted to 32 µg/mL (≈ 41.7 µM) and the MIC (organism code ZZA) worked out at 2 µg/mL (≈ 2.61 µM).

Consider `CC[C@H]1OC(=O)[C@H](C)C(=O)[C@H](C)[C@@H](O[C@@H]2O[C@H](C)C[C@H](N(C)C)[C@H]2O)[C@@](C)(OCCCc2ccccc2)C[C@@H](C)C(=O)[C@H](C)[C@@H](O)[C@]1(C)O` [Example 15, Compound of Formula (VIII): X is O, R is —CH2CH2CH2-Phenyl], for which the MIC by setting is: under setting [1], above 100 µg/mL; under setting [2], 1.56 µg/mL; under setting [3], above 100 µg/mL; under setting [4], above 100 µg/mL; (Escherichia coli SS (code RR)) 6.2 µg/mL; under setting [5], above 64 µg/mL. Moreover, the MIC by setting is: under setting [6], 3.1 µg/mL; under setting [7], 0.78 µg/mL; under setting [8], 6.2 µg/mL; under setting [9], 1.56 µg/mL; under setting [10], above 100 µg/mL; under setting [11], 6.2 µg/mL. Also, the MIC was above 100 µg/mL under setting [12]; 6.2 µg/mL under setting [13]; 6.2 µg/mL under setting [14]; 6.2 µg/mL under setting [15]; 6.2 µg/mL under setting [16]; 6.2 µg/mL under setting [17]. In addition, the MIC reads like this: under setting [18], 1 µg/mL; under setting [19], 32 µg/mL; under setting [20], 1 µg/mL; under setting [21], 1 µg/mL; under setting [22], 0.2 µg/mL; under setting [23], 0.2 µg/mL. The MIC under setting [24] was 100 µg/mL, the MIC under setting [25] came out at 0.39 µg/mL and the MIC under setting [26] is 3.1 µg/mL.

In the case of `CCC1OC(=O)C(C)C(=O)C(C)C(OC2OC(C)CC(N(C)C)C2O)C(C)(OCC=Cc2ccc3c(c2)OCCO3)CC(C)C(=O)C(C)C2NC(=O)OC12C` (stereo not shown) [Example 192], the MIC reads like this: under setting [1], above 100 µg/mL; under setting [2], 0.02 µg/mL (≈ 0.0259 µM); under setting [3], 100 µg/mL (≈ 129 µM); under setting [4], above 100 µg/mL; (Escherichia coli SS (code RR)) 0.2 µg/mL (≈ 0.259 µM); under setting [5], 4 µg/mL (≈ 5.18 µM). Also, the MIC runs as follows: under setting [6], 0.2 µg/mL (≈ 0.259 µM); under setting [7], 0.01 µg/mL (≈ 0.0129 µM); under setting [8], 3.1 µg/mL (≈ 4.01 µM); under setting [9], 0.1 µg/mL (≈ 0.129 µM); under setting [10], above 100 µg/mL; under setting [11], 0.1 µg/mL (≈ 0.129 µM). The molecule also showed an MIC under setting [12] above 100 µg/mL; an MIC under setting [13] of 0.1 µg/mL (≈ 0.129 µM); an MIC under setting [14] of 0.1 µg/mL (≈ 0.129 µM); an MIC under setting [15] of 0.1 µg/mL (≈ 0.129 µM); an MIC under setting [16] of 0.2 µg/mL (≈ 0.259 µM); an MIC under setting [17] of 0.1 µg/mL (≈ 0.129 µM). The MIC is 0.25 µg/mL (≈ 0.323 µM) under setting [18]; above 128 µg/mL under setting [19]; 0.03 µg/mL (≈ 0.0388 µM) under setting [20]; 0.03 µg/mL (≈ 0.0388 µM) under setting [21]; 0.01 µg/mL (≈ 0.0129 µM) under setting [22]; 0.01 µg/mL (≈ 0.0129 µM) under setting [23]. Also, the MIC worked out at 50 µg/mL (≈ 64.7 µM) under setting [24], 0.01 µg/mL (≈ 0.0129 µM) under setting [25] and 0.1 µg/mL (≈ 0.129 µM) under setting [26].
